The source of these data is patent US20140356325A1, “NOVEL 2'-C-METHYL NUCLEOSIDE DERIVATIVE COMPOUNDS” (Ligand Pharmaceuticals Incorporated, priority 2012, published 2014).

Structures are written as SMILES. Counter-ions that a name gives are not always drawn.

What is called melting point is the temperature of the solid-liquid transition. `CCC(CC)COc1nc(N)nc2c1ncn2[C@@H]1O[C@H](CO[P@@]2(=O)OCC[C@@H](c3cccc(Cl)c3)O2)[C@H]2OC(=O)O[C@]21C` [Compound 143, 2(R)-(2-Amino-6-(2-ethylbutyloxy)-9(H)-purinyl)-4(R)-(4(S)-(3-chlorophenyl)-2-oxo-1,3,2-dioxaphosphorinan-2(R)-yloxymethyl)-1(R)-methyl-7-oxo-3,6,8-trioxa-cis-bicyclo[3.3.0]octane] displayed a melting point of 72 to 75 °C.

The molecule `CCOc1nc(N)nc2c1ncn2[C@@H]1O[C@H](CO[P@@]2(=O)OCC[C@@H](c3cccc(Cl)c3)O2)[C@H]2OC(=O)O[C@]21C` [Compound 120, 2(R)-(2-Amino-6-ethoxy-9(H)-purinyl)-4(R)-(4(S)-(3-chlorophenyl)-2-oxo-1,3,2-dioxaphosphorinan-2(R)-yloxymethyl)-1(R)-methyl-7-oxo-3,6,8-trioxa-cis-bicyclo[3.3.0]octane] registered a melting point of 82 to 84 °C.

In turn, `CC(C)COc1nc(N)nc2c1ncn2[C@@H]1O[C@H](CO[P@@]2(=O)OCC[C@@H](c3cccc(Cl)c3)O2)[C@H]2OC(=O)O[C@]21C` [Compound 122, 2(R)-(2-Amino-6-(2-methylpropyloxy)-9(H)-purinyl)-4(R)-(4(S)-(3-chlorophenyl)-2-oxo-1,3,2-dioxaphosphorinan-2(R)-yloxymethyl)-1(R)-methyl-7-oxo-3,6,8-trioxa-cis-bicyclo[3.3.0]octane] gave a melting point of 118 to 122 °C.

For the molecule `COC(C)(C)CCOc1nc(N)nc2c1ncn2[C@@H]1O[C@H](CO[P@@]2(=O)OCC[C@@H](c3cccc(Cl)c3)O2)[C@H]2OC(=O)O[C@]21C` [Compound 138, 2(R)-(2-Amino-6-(3-methyl-3-methoxybutyloxy)-9 (H)-purinyl)-4(R)-(4(S)-(3-chlorophenyl)-2-oxo-1,3,2-dioxaphosphorinan-2(R)-yloxymethyl)-1(R)-methyl-7-oxo-3,6,8-trioxa-cis-bicyclo[3.3.0]octane], the melting point fell in the range of 93 to 96 °C.

Take `CCOc1nc(N)nc2c1ncn2[C@@H]1O[C@H](CO[P@@]2(=O)OCC[C@@H](c3cccc(Cl)c3)O2)[C@@H](OC(=O)C2CCCC2)[C@@]1(C)O` [Compound 186, 2(R)-(2-Amino-6-ethoxy-9(H)-purinyl)-5(R)-(4(S)-(3-chlorophenyl)-2-oxo-1,3,2-dioxaphosphorinan-2(R)-yloxymethyl)-3(R)-hydroxy-3(R)-methyl-4(R)-cyclopentylcarboxy-tetrahydrofuran]: the melting point fell in the range of 106 to 111 °C.

Consider `C[C@@]12OC(=O)O[C@@H]1[C@@H](CO[P@@]1(=O)OCC[C@@H](c3cccc(Cl)c3)O1)O[C@H]2n1cnc2c(OCC3CCC3)nc(N)nc21` [Compound 140, 2(R)-(2-Amino-6-cyclobutylmethoxy-9(H)-purinyl)-4(R)-(4(S)-(3-chlorophenyl)-2-oxo-1,3,2-dioxaphosphorinan-2(R)-yloxymethyl)-1(R)-methyl-7-oxo-3,6,8-trioxa-cis-bicyclo[3.3.0]octane], for which the melting point lay within 92 to 94 °C.

`CC(C)CCOc1nc(N)nc2c1ncn2[C@@H]1O[C@H](CO[P@@]2(=O)OCC[C@@H](c3cccc(Cl)c3)O2)[C@H]2OC(=O)O[C@]21C` [Compound 134, 2(R)-(2-Amino-6-(3-methylbutyloxy)-9(H)-purinyl)-4(R)-(4(S)-(3-chlorophenyl)-2-oxo-1,3,2-dioxaphosphorinan-2(R)-yloxymethyl)-1(R)-methyl-7-oxo-3,6,8-trioxa-cis-bicyclo[3.3.0]octane] returned a melting point of 76 to 78 °C.

On to `CC1CC1COc1nc(N)nc2c1ncn2[C@@H]1O[C@H](CO[P@@]2(=O)OCC[C@@H](c3cccc(Cl)c3)O2)[C@H]2OC(=O)O[C@]21C` (stereo partly drawn) [Compound 135, 2(R)-(2-Amino-6-(2-methylcyclopropylmethoxy)-9(H)-purinyl)-4(R)-(4(S)-(3-chlorophenyl)-2-oxo-1,3,2-dioxaphosphorinan-2(R)-yloxymethyl)-1(R)-methyl-7-oxo-3,6,8-trioxa-cis-bicyclo[3.3.0]octane], for which the melting point was 88 to 90 °C.

Molecule `C[C@@]12OC(=O)O[C@@H]1[C@@H](CO[P@@]1(=O)OCC[C@@H](c3cccc(C#N)c3)O1)O[C@H]2n1cnc2c(O)nc(N)nc21` [Compound 109, 2(R)-(2-Amino-6-hydroxy-9 (H)-purinyl)-4(R)-(4(S)-(3-cyanophenyl)-2-oxo-1,3,2-dioxaphosphorinan-2(R)-yloxymethyl)-1(R)-methyl-7-oxo-3,6,8-trioxa-cis-bicyclo[3.3.0]octane] displayed a melting point of 218 to 220 °C.

Turning to `CCOc1nc(N)nc2c1ncn2[C@@H]1O[C@H](CO[P@@]2(=O)OCC[C@@H](c3cccc(Cl)c3)O2)[C@@H](OC(=O)[C@@H](N)C(C)C)[C@@]1(C)O` (as salt: trifluoroacetate) [Compound 184, 2(R)-(2-Amino-6-ethoxy-9(H)-purinyl)-5(R)-(4(S)-(3-chlorophenyl)-2-oxo-1,3,2-dioxaphosphorinan-2(R)-yloxymethyl)-3(R)-hydroxy-3(R)-methyl-4(R)-L-valinyl-tetrahydrofuran], the melting point fell in the range of 128 to 130 °C.

`C[C@@]12OC(=O)O[C@@H]1[C@@H](CO[P@@]1(=O)OCC[C@@H](c3cccc(Cl)c3)O1)O[C@H]2n1cnc2c(OCCC3CCCCC3)nc(N)nc21` [Compound 131, 2(R)-(2-Amino-6-(2-cyclohexylethoxy)-9(H)-purinyl)-4(R)-(4(S)-(3-chlorophenyl)-2-oxo-1,3,2-dioxaphosphorinan-2(R)-yloxymethyl)-1(R)-methyl-7-oxo-3,6,8-trioxa-cis-bicyclo[3.3.0]octane]: the melting point fell in the range of 93 to 95 °C.

The molecule `CC(C)Oc1nc(N)nc2c1ncn2[C@@H]1O[C@H](CO[P@@]2(=O)OCC[C@@H](c3cccc(Cl)c3)O2)[C@H]2OC(=O)O[C@]21C` [Compound 151, 2(R)-(2-Amino-6-isopropyloxy-9(H)-purinyl)-4(R)-(4(S)-(3-chlorophenyl)-2-oxo-1,3,2-dioxaphosphorinan-2(R)-yloxymethyl)-1(R)-methyl-7-oxo-3,6,8-trioxa-cis-bicyclo[3.3.0]octane] yielded a melting point of 106 to 110 °C.

Regarding `C[C@@]12OC(=O)O[C@@H]1[C@@H](CO[P@@]1(=O)OCC[C@@H](c3cc(F)cc(F)c3)O1)O[C@H]2n1cnc2c(O)nc(N)nc21` [Compound 101, 2(R)-(2-Amino-6-hydroxy-9(H)-purinyl)-4(R)-(4(S)-(3,5-difluorophenyl)-2-oxo-1,3,2-dioxaphosphorinan-2-(R)-yloxymethyl)-1(R)-methyl-7-oxo-3,6,8-trioxa-cis-bicyclo[3.3.0]octane], the melting point was in the range of 234 to 236 °C.

Take `CCOc1nc(N)nc2c1ncn2[C@@H]1O[C@H](CO[P@@]2(=O)OCC[C@@H](c3cc(Cl)cc(Cl)c3)O2)[C@H]2OC(=O)O[C@]21C` [Compound 127, 2(R)-(2-Amino-6-ethoxy-9(H)-purinyl)-4(R)-(4(S)-(3,5-dichlorophenyl)-2-oxo-1,3,2-dioxaphosphorinan-2(R)-yloxymethyl)-1(R)-methyl-7-oxo-3,6,8-trioxa-cis-bicyclo[3.3.0]octane]: the melting point lay in the range of 101 to 103 °C.

Regarding `CCOc1nc(N)nc2c1ncn2[C@@H]1O[C@H](CO[P@]2(=O)OCC[C@H](c3cc(Cl)cc(Cl)c3)O2)[C@H]2OC(=O)O[C@]21C` [Compound 128, 2(R)-(2-Amino-6-ethoxy-9(H)-purinyl)-4(R)-(4(R)-(3,5-dichlorophenyl)-2-oxo-1,3,2-dioxaphosphorinan-2(S)-yloxymethyl)-1(R)-methyl-7-oxo-3,6,8-trioxa-cis-bicyclo[3.3.0]octane], the melting point fell in the range of 101 to 103 °C.
